Results taken from patent US8252832B2, “Kinesin inhibitors as cancer therapeutics” (Novartis AG, priority 2007, dated 2012).
“And” between values parts separate entries of the source, which are not always exact repeats. Identical values can stand only once. Like-named read-outs stand apart in the source and are kept apart here. Marks after values point to notes of the source that are not given here.

What was measured:
HCT15 tumor xenograft = HCT15 tumor xenograft model, tumor response; assay type: in vivo, mouse
Experimental: Routine animal care and assurance of welfare were as described above.
Human HCT15 colon carcinoma cells were obtained from the National Cancer Institute's DCTD Tumor Repository (catalog #NCI-502711, Rockville, Md.). HCT15 cells were grown in RPMI 1640 with 2 mM L-glutamine (Mediatech Inc., catalog #15-040-CV) supplemented with 10% fetal bovine serum (JRH Biosciences, catalog #12003-1000M). The cells were tested to be free of Mycoplasma sp. and murine viruses in the IMPACT1 PCR assay panel (RADIL, University of Missouri, Columbia, Mo.)
These cells were grown as adherent cultures, maintained at 37° C. in a humidified atmosphere containing 5% carbon dioxide. Cells were cultured for fewer than 10 passages prior to use. Cells were harvested at 95% confluency, and centrifuged at ˜800×g for 5 minutes at 4° C. and then resuspended in a 1:1 ratio of HBSS (Mediatech Inc., catalog #21-021-CV) plus Matrigel™ at a concentration of 50 million cells/mL for implantation subcutaneously (injection volume of 0.2 mL).
Treatments for the efficacy studies were initiated 10 days following tumor cell implantation when tumors were approximately 300 mm^3. Compound IIa and SB-715992 were administered intravenously (i.v.) via the tail vein in a volume of 8 mL/kg at the doses indicated. Paclitaxel was administered intraperitoneally (i.p.) in a volume of 16 mL/kg at 30 mg/kg.
Tumor volume was calculated as (L×W2)/2. […] Data was analyzed as described above.

[1] = tested on: MV4; 11 human AML subcutaneous xenograft tumors; test: Subcutaneous MV4; 11 tumor xenograft model, tumor response; assay type: in vivo, mouse
Experimental: Subcutaneous tumor efficacy studies were performed using outbred athymic nu/nu mice approximately 6-8 weeks old (Charles River Laboratories, Hollister, Calif.). The efficacy study in the disseminated disease model was performed using immunodeficient NOD-SCID female mice approximately 7-8 weeks old (Jackson Laboratories, Bar Harbor, Me.). […] Routine animal care and assurance of welfare were as described above.
Human MV4; 11 acute myelogenous leukemia cells were obtained from American Tissue Culture Collection (catalog #CRL-9591, Rockville, Md.) and tested to be free of Mycoplasma sp. and murine viruses in the IMPACT1 PCR assay panel (RADIL, University of Missouri, Columbia, Mo.). For the disseminated disease model, a stable pool of MV4; 11 cells expressing the luciferase gene was received from Fangxian Sun at the Genomics Institute of the Novartis Research Foundation in San Diego, Calif. (MV4; 11-luc). The MV4; 11 cells were grown in Iscove's modified Dulbecco's medium (Mediatech Inc., catalog #15-016-CV) supplemented with 10% fetal bovine serum (JRH Biosciences, catalog #12003-1000M), 4 mM L-glutamine and 5 ng/mL recombinant human […] (GM-CSF) (R&D Systems, catalog #215-GM). MV4; 11-luc were grown in the same media, but with the addition of 2 micrograms/mL of puromycin for selection of luciferase expression. These cells were grown as suspension cultures, maintained at 37° C. in a humidified atmosphere containing 5% carbon dioxide. Cells were cultured for fewer than 10 passages prior to use. Cells were harvested at approximately 2 million cells/mL, and centrifuged at ˜800×g for 5 minutes at 4° C. and then resuspended in a cold HBSS (Mediatech Inc., catalog #21-021-CV) at a concentration of 25 million cells/mL (containing 50% Matrigel™, BD Biosciences, catalog #354234) for implantation subcutaneously (injection volume of 0.2 mL) or at a concentration of 100 million cells/mL for implantation intravenously (i.v.) via the tail vein (injection volume of 0.1 mL). Mice were irradiated with 3 gray for 3 minutes one day prior to the i.v. cell implant.
The compound IIa (free base) and SB-715992 (free base) were formulated in 20% Captisol for a dose volume of 8 mL/kg. Doses were adjusted to each animal's body weight.
For the two efficacy evaluations in the subcutaneous tumor model, 10 million cells combined in a 1:1 mixture of HBSS and Matrigel™ were injected subcutaneously in the right flank in a total volume of 0.2 mL/mouse. […] Tumor volume was calculated as (L×W2)/2.

KB8.5 tumor xenograft = KB8.5 tumor xenograft model (P-gp expressing), tumor response; assay type: in vivo, mouse; conditions: q4d × 3
Experimental: Cells were cultured for fewer than 10 passages prior to use. […] All data were expressed as mean and SEM. Between-groups comparisons for final tumor measurements were performed using the one-way ANOVA pair-wise analysis. Significance was determined using Kruskal-Wallis one-way ANOVA on Ranks, followed by appropriate post-hoc test (Dunn's Method or Tukey Test) for multiple pair-wise comparisons. Statistical analysis was carried out using SigmaStat (Systat Software Inc., San Jose, Calif.).

[2] = q4d × 3
Experimental: Experiments were performed using outbred athymic nu/nu mice (Charles River Laboratories) approximately 6-8 weeks old. Upon arrival, animals received a subcutaneous microchip implant (AVID, Folsom, La.) in the subscapular region for identification of individuals. Animals were allowed to acclimatize for 1 week before any experimental procedures began.
Compound IIa, compound IIc, compound IIa (shown below), and SB-715992 were formulated in a Captisol®-based formulation. Doses were administered intravenously (i.v.) and adjusted to each animal's body weight. Formulations were made once at the beginning of study and stored at room temperature. Clinical grade paclitaxel was purchased pre-mixed in a cremophor-based vehicle (Mayne Pharma, now Hospira, Lake Forest, Ill., catalog #NDC-6170334209) and diluted in sterile saline to provide a dose volume of 16 mL/kg for a 30 mg/kg dose administered intraperitoneally (i.p.)
For the efficacy studies, mice were enrolled with a mean tumor volume of approximately 300 mm^3. Tumor xenografts were measured in two dimensions (L and W) with digital calipers twice weekly from the start of dosing on Day 0. Tumor volume was calculated as (L×W^2)/2. Body weights were measured twice weekly and clinical observations were recorded daily. Tumor volume and body weights were captured and stored by StudyDirector software (StudyLog, South San Francisco, Calif.).

[3] = Study 2, 0.13 mg/kg, q4d × 3, i.v
[4] = Study 2, 0.25 mg/kg, q4d × 3, i.v
[5] = Study 2, 0.5 mg/kg, q4d × 3, i.v
[6] = Study 2, 1.8 mg/kg, Q4d × 3, i.v
[7] = Study 2, 3.5 mg/kg, Q4d × 3, i.v
[8] = Study 2, 7.5 mg/kg, Q4d × 3, i.v

CC(C)(C)[C@H](c1nc(-c2cc(F)ccc2F)cn1Cc1ccccc1)N(CC[C@H](N)CF)C(=O)CO [Compound IIa]
Δ Tumor volume, Day 15 (HCT15 tumor xenograft; 1.25 mg/kg, q4d × 3, i.v): 671 ± 172 mm^3
ΔT/ΔC, Day 15 (%) (HCT15 tumor xenograft; 1.25 mg/kg, q4d × 3, i.v): 60%
Δ Tumor volume, Day 15 (HCT15 tumor xenograft; 2.5 mg/kg, q4d × 3, i.v): 735 ± 159 mm^3
ΔT/ΔC, Day 15 (%) (HCT15 tumor xenograft; 2.5 mg/kg, q4d × 3, i.v): 65%
Δ Tumor volume, Day 15 (HCT15 tumor xenograft; 4.0 mg/kg, q4d × 3, i.v): 99 ± 78 mm^3
ΔT/ΔC, Day 15 (%) (HCT15 tumor xenograft; 4.0 mg/kg, q4d × 3, i.v, listed as COMPOUND IIa): 26* %
ΔT/ΔC, Day 15 (%) (HCT15 tumor xenograft; 4.0 mg/kg, q4d × 3, i.v, listed as compound IIa): 26%
CR (complete tumor regressions) ([1]; 0.625 mg/kg, q4d × 3, i.v.): 0
Δ Tumor volume, Day 24 ([1]; 0.625 mg/kg, q4d × 3, i.v.): −32 ± 172 mm^3
% Max Regression (Day) ([1]; 0.625 mg/kg, q4d × 3, i.v., D10): 69%
Δ Tumor volume, Day 24 ([1]; 4 mg/kg, q4d × 3, i.v.): −176 ± 31 mm^3
% Max Regression (Day) ([1]; 4 mg/kg, q4d × 3, i.v., D60): 100, %
CR (complete tumor regressions) ([1]; 4 mg/kg, q4d × 3, i.v., listed as COMPOUND IIa): 9
CR (complete tumor regressions) ([1]; 4 mg/kg, q4d × 3, i.v., listed as compound IIa): 9/9
CR (complete tumor regressions) [1, 3]: 0
Δ Tumor volume, Day 21 [1, 3]: 921 ± 341 mm^3
ΔT/ΔC, Day 21 (%) [1, 3]: 161%
CR (complete tumor regressions) [1, 4]: 0
Δ Tumor volume, Day 21 [1, 4]: 765 ± 196 mm^3
ΔT/ΔC, Day 21 (%) [1, 4]: 133%
CR (complete tumor regressions) [1, 5]: 0
Δ Tumor volume, Day 21 [1, 5]: 114 ± 110 mm^3
ΔT/ΔC, Day 21 (%) [1, 5]: 20%
% Max. Regression (Day) ([1]; Study 2, 0.5 mg/kg, q4d × 3, i.v, D10): 55 (D10) %
CR (complete tumor regressions) ([1]; Study 2, 1 mg/kg, q4d × 3, i.v): 6
Δ Tumor volume, Day 21 ([1]; Study 2, 1 mg/kg, q4d × 3, i.v): −194 ± 27 mm^3
% Max. Regression (Day) ([1]; Study 2, 1 mg/kg, q4d × 3, i.v, D63): 89 (D63) %
CR (complete tumor regressions) ([1]; Study 2, 2 mg/kg, q4d × 3, i.v): 5
Δ Tumor volume, Day 21 ([1]; Study 2, 2 mg/kg, q4d × 3, i.v): −201 ± 23 mm^3
% Max. Regression (Day) ([1]; Study 2, 2 mg/kg, q4d × 3, i.v, D63): 87 (D63) %
ΔT/ΔC, Day 11 (%) (KB8.5 tumor xenograft; 5 mg/kg, i.v.): 19%
Survival (alive/total) ([2]; 5 mg/kg, i.v.): 9/9
% Max. Δ body weight, (Day) ([2]; 5 mg/kg, i.v., D11): −2 (D11) %

CC(=O)O[C@H]1C(=O)[C@@]2(C)[C@H]([C@H](OC(=O)c3ccccc3)[C@]3(O)C[C@H](OC(=O)[C@H](O)[C@@H](NC(=O)c4ccccc4)c4ccccc4)C(C)=C1C3(C)C)[C@]1(OC(C)=O)CO[C@@H]1C[C@@H]2O [Paclitaxel, reference compound]
Δ Tumor volume, Day 15 (HCT15 tumor xenograft; 30 mg/kg, Q4d × 3, i.p.): 703 ± 198 mm^3
ΔT/ΔC, Day 15 (%) (HCT15 tumor xenograft; 30 mg/kg, Q4d × 3, i.p.): 104%
CR (complete tumor regressions) ([1]; 1 mg/kg, q4d × 3, i.p.): 7
Δ Tumor volume, Day 24 ([1]; 1 mg/kg, q4d × 3, i.p.): −151 ± 63 mm^3
% Max Regression (Day) ([1]; 1 mg/kg, q4d × 3, i.p., D46): 75%
CR (complete tumor regressions) ([1]; 1 mg/kg, q4d × 3, i.p., listed as paclitaxel): 7/9
ΔT/ΔC, Day 11 (%) (KB8.5 tumor xenograft; 30 mg/kg, i.p.): 78%
ΔT/ΔC, Day 11 (%) (KB8.5 tumor xenograft; Table 14 study, 30 mg/kg, i.p.): 87%
ΔT/ΔC, Day 11 (%) (KB8.5 tumor xenograft; Table 15 study, 30 mg/kg, i.p., not statistically different from vehicle): 60%
Survival (alive/total) ([2]; 30 mg/kg, i.p.): 9/9
Survival (alive/total) ([2]; Table 14 study, 30 mg/kg, i.p.): 9/9
Survival (alive/total) ([2]; Table 15 study, 30 mg/kg, i.p.): 10/10

Cc1ccc(C(=O)N(CCCN)[C@@H](c2nc3cc(Cl)ccc3c(=O)n2Cc2ccccc2)C(C)C)cc1 [SB-715992, Ispinesib, reference compound]
Δ Tumor volume, Day 15 (HCT15 tumor xenograft; 7.5 mg/kg, q4d × 3, i.v): 647 ± 164 mm^3
ΔT/ΔC, Day 15 (%) (HCT15 tumor xenograft; 7.5 mg/kg, q4d × 3, i.v): 87%
Δ Tumor volume, Day 15 (HCT15 tumor xenograft; 15 mg/kg, q4d × 3, i.v.): 491 ± 109 mm^3
ΔT/ΔC, Day 15 (%) (HCT15 tumor xenograft; 15 mg/kg, q4d × 3, i.v.): 67%
CR (complete tumor regressions) ([1]; 15 mg/kg, q4d × 3, i.v.): 6/9 and 6
Δ Tumor volume, Day 24 ([1]; 15 mg/kg, q4d × 3, i.v.): −211 ± 28 mm^3
% Max Regression (Day) ([1]; 15 mg/kg, q4d × 3, i.v., D60): 98%
CR (complete tumor regressions) [1, 6]: 0
Δ Tumor volume, Day 21 [1, 6]: 339 ± 218 mm^3
ΔT/ΔC, Day 21 (%) [1, 6]: 59%
CR (complete tumor regressions) [1, 7]: 0
Δ Tumor volume, Day 21 [1, 7]: 251 ± 132 mm^3
ΔT/ΔC, Day 21 (%) [1, 7]: 44%
% Max. Regression (Day) ([1]; Study 2, 3.5 mg/kg, Q4d × 3, i.v, D10): 41 (D10) %
CR (complete tumor regressions) [1, 8]: 3
Δ Tumor volume, Day 21 [1, 8]: −204 ± 20 mm^3
% Max. Regression (Day) ([1]; Study 2, 7.5 mg/kg, Q4d × 3, i.v, D31): 75 (D31) %
ΔT/ΔC, Day 11 (%) (KB8.5 tumor xenograft; 15 mg/kg, i.v.): 56%
ΔT/ΔC, Day 11 (%) (KB8.5 tumor xenograft; Table 14 study, 15 mg/kg, i.v.): 77%
ΔT/ΔC, Day 11 (%) (KB8.5 tumor xenograft; Table 15 study, 15 mg/kg, i.v., not statistically different from vehicle): 60%
Survival (alive/total) ([2]; 15 mg/kg, i.v.): 9/9
% Max. Δ body weight, (Day) ([2]; 15 mg/kg, i.v., D7): 4 (D7) %
Survival (alive/total) ([2]; Table 14 study, 15 mg/kg, i.v.): 9/9
% Max. Δ body weight, (Day) ([2]; Table 14 study, 15 mg/kg, i.v., D4): −1 (D4) %
Survival (alive/total) ([2]; Table 15 study, 15 mg/kg, i.v.): 10/10
% Max. Δ body weight, (Day) ([2]; Table 15 study, 15 mg/kg, i.v., D11): −3 (D11) %
